Assay type in all cases: functional
Holding throughout (conditions): read-out: DIZ

The subject of assay [1] is Staphylococcus aureus. The assay is described as follows: Antibacterial activity against Staphylococcus aureus at 0.13 mol/L after 12 to 24 hrs by paper disc method.
Assay [2] concerns Staphylococcus aureus. Kind of assay: Antibacterial activity against Staphylococcus aureus at 0.25 mol/L after 12 to 24 hrs by paper disc method.
Assay [3] deals with Escherichia coli. The assay is described as follows: Antibacterial activity against Escherichia coli at 0.03 mol/L after 12 to 24 hrs by paper disc method.
For assay [4], the system named is Aspergillus niger. The assay is described as follows: Antifungal activity against Aspergillus niger at 0.13 mol/L after 2 to 4 days by paper disc method.
For assay [5], the system named is Escherichia coli. Kind of assay: Antibacterial activity against Escherichia coli at 0.06 mol/L after 12 to 24 hrs by paper disc method.
In assay [6] the test system is Escherichia coli. The assay is described as follows: Antibacterial activity against Escherichia coli at 0.25 mol/L after 12 to 24 hrs by paper disc method.
In assay [7] the test system is Staphylococcus aureus. Kind of assay: Antibacterial activity against Staphylococcus aureus at 0.03 mol/L after 12 to 24 hrs by paper disc method.
In assay [8] the test system is Staphylococcus aureus. Kind of assay: Antibacterial activity against Staphylococcus aureus at 0.06 mol/L after 12 to 24 hrs by paper disc method.
The test system of assay [9] is Penicillium citrinum. The assay is described as follows: Antifungal activity against Penicillium citrinum at 0.06 mol/L after 2 to 4 days by paper disc method.
Assay [10] concerns Escherichia coli. Kind of assay: Antibacterial activity against Escherichia coli at 0.13 mol/L after 12 to 24 hrs by paper disc method.
Assay [11] concerns Aspergillus niger. Kind of assay: Antifungal activity against Aspergillus niger at 0.06 mol/L after 2 to 4 days by paper disc method.
Assay [12] deals with Aspergillus niger. Kind of assay: Antifungal activity against Aspergillus niger at 0.25 mol/L after 2 to 4 days by paper disc method.
Assay [13] relates to Penicillium citrinum. The assay is described as follows: Antifungal activity against Penicillium citrinum at 0.13 mol/L after 2 to 4 days by paper disc method.
Assay [14] relates to Penicillium citrinum. The assay is described as follows: Antifungal activity against Penicillium citrinum at 0.03 mol/L after 2 to 4 days by paper disc method.
In assay [15] the test system is Penicillium citrinum. Kind of assay: Antifungal activity against Penicillium citrinum at 0.25 mol/L after 2 to 4 days by paper disc method.
Assay [16] deals with Aspergillus niger. Kind of assay: Antifungal activity against Aspergillus niger at 0.03 mol/L after 2 to 4 days by paper disc method.

For the compound `O=C(O)C[C@H](/N=C/C=C/c1ccccc1)C(=O)O`, the zone of inhibition at 130000 µM in the assay with Staphylococcus aureus [1] was 8 mm; in the assay with Aspergillus niger [4], 24 mm; in the assay on Escherichia coli [10], 17.3 mm; with Penicillium citrinum [13] it was 28 mm. Also, the zone of inhibition at 250000 µM in the assay with Staphylococcus aureus [2] was determined as 18 mm; in the assay with Escherichia coli [6], 25 mm; in the assay with Aspergillus niger [12] it was 29.7 mm; in the assay on Penicillium citrinum [15] it was 40.7 mm. In addition, the zone of inhibition at 30000 µM in the assay with Escherichia coli [3] came to 8 mm; in the assay with Staphylococcus aureus [7] it was 8 mm; in the assay on Penicillium citrinum [14], 10.3 mm; in the assay with Aspergillus niger [16], 12.7 mm. The zone of inhibition at 60000 µM worked out at 12 mm with Escherichia coli [5], 8 mm in the assay on Staphylococcus aureus [8], 14.8 mm in the assay on Penicillium citrinum [9] and 19.3 mm with Aspergillus niger [11].

In the case of `O=C(O)C/N=C/C=C/c1ccccc1`, the zone of inhibition at 130000 µM was 8 mm with Staphylococcus aureus [1], 8.7 mm in the assay on Aspergillus niger [4], 8 mm with Escherichia coli [10] and 10.7 mm in the assay on Penicillium citrinum [13]. Also, the zone of inhibition at 250000 µM in the assay with Staphylococcus aureus [2] is 11.7 mm; with Escherichia coli [6], 9.3 mm; in the assay with Aspergillus niger [12], 11 mm; in the assay on Penicillium citrinum [15] it was 10.3 mm. Moreover, the zone of inhibition at 30000 µM with Escherichia coli [3], in the assay with Staphylococcus aureus [7], with Penicillium citrinum [14] and in the assay on Aspergillus niger [16] was 8 mm each time. Also, the zone of inhibition at 60000 µM in the assay with Escherichia coli [5] came out at 8 mm; in the assay on Staphylococcus aureus [8] it was 8 mm; in the assay on Penicillium citrinum [9], 11 mm; in the assay on Aspergillus niger [11], 9 mm.

On to `CC(/N=C/C=C/c1ccccc1)C(=O)O` (stereo unspecified), for which the zone of inhibition at 130000 µM is 8 mm in the assay on Staphylococcus aureus [1], 8.3 mm in the assay with Aspergillus niger [4], 8 mm in the assay on Escherichia coli [10] and 10.3 mm in the assay on Penicillium citrinum [13]. Moreover, the zone of inhibition at 250000 µM worked out at 8 mm with Staphylococcus aureus [2], 11 mm with Escherichia coli [6], 9.7 mm with Aspergillus niger [12] and 8 mm in the assay with Penicillium citrinum [15]. Further, the zone of inhibition at 30000 µM in the assay with Escherichia coli [3] amounted to 8 mm; with Staphylococcus aureus [7], 8 mm; in the assay on Penicillium citrinum [14] it was 12.3 mm; with Aspergillus niger [16] it was 8 mm. For the same compound, the zone of inhibition at 60000 µM is 8 mm in the assay on Escherichia coli [5], 8 mm in the assay with Staphylococcus aureus [8], 9.3 mm in the assay with Penicillium citrinum [9] and 8 mm with Aspergillus niger [11].

With `COc1ccc(/C=C/C=N/[C@@H](Cc2ccc(O)cc2)C(=O)O)cc1`, the zone of inhibition at 130000 µM came out at 8.7 mm in the assay with Staphylococcus aureus [1], 14.7 mm in the assay with Aspergillus niger [4], 12.3 mm with Escherichia coli [10] and 16.5 mm with Penicillium citrinum [13]. Besides, the zone of inhibition at 250000 µM turned out to be 8.5 mm in the assay with Staphylococcus aureus [2], 18 mm with Escherichia coli [6], 19.5 mm in the assay on Aspergillus niger [12] and 24 mm with Penicillium citrinum [15]. Further, the zone of inhibition at 30000 µM in the assay on Escherichia coli [3] was 12 mm; in the assay on Staphylococcus aureus [7], 8 mm; in the assay on Penicillium citrinum [14] it was 10.8 mm; with Aspergillus niger [16], 10.3 mm. Also, the zone of inhibition at 60000 µM in the assay on Escherichia coli [5] amounted to 8.3 mm; in the assay on Staphylococcus aureus [8], 8 mm; with Penicillium citrinum [9], 19 mm; in the assay with Aspergillus niger [11], 13.8 mm.

On to `O=C(O)C[C@H](/N=C/C=C/c1ccc(Cl)cc1)C(=O)O`, for which the zone of inhibition at 130000 µM in the assay on Staphylococcus aureus [1] was 18.3 mm; in the assay on Aspergillus niger [4], 15.7 mm; with Escherichia coli [10] it was 12 mm; in the assay with Penicillium citrinum [13], 23.3 mm. The zone of inhibition at 250000 µM in the assay on Staphylococcus aureus [2] was determined as 30.3 mm; with Escherichia coli [6] it was 25.2 mm; in the assay with Aspergillus niger [12], 29 mm; with Penicillium citrinum [15], 32.3 mm. Also, the zone of inhibition at 30000 µM stood at 8 mm with Escherichia coli [3], 9.2 mm in the assay on Staphylococcus aureus [7], 24.5 mm in the assay with Penicillium citrinum [14] and 14.3 mm in the assay on Aspergillus niger [16]. The zone of inhibition at 60000 µM worked out at 13 mm with Escherichia coli [5], 8.5 mm in the assay on Staphylococcus aureus [8], 25 mm in the assay on Penicillium citrinum [9] and 19.3 mm with Aspergillus niger [11].

Turning to `CC(C)[C@H](/N=C/C=C/c1ccccc1)C(=O)O`, the zone of inhibition at 130000 µM amounted to 8 mm in the assay with Staphylococcus aureus [1], 12.3 mm in the assay with Aspergillus niger [4], 8 mm in the assay on Escherichia coli [10] and 9.7 mm in the assay with Penicillium citrinum [13]. In addition, the zone of inhibition at 250000 µM in the assay on Staphylococcus aureus [2] amounted to 8 mm; in the assay on Escherichia coli [6] it was 9 mm; in the assay on Aspergillus niger [12] it was 12.7 mm; in the assay on Penicillium citrinum [15] it was 12.5 mm. Also, the zone of inhibition at 30000 µM stood at 8 mm with Escherichia coli [3], 8 mm in the assay on Staphylococcus aureus [7], 9 mm in the assay with Penicillium citrinum [14] and 8 mm in the assay with Aspergillus niger [16]. For the same compound, the zone of inhibition at 60000 µM in the assay with Escherichia coli [5] turned out to be 11 mm; in the assay with Staphylococcus aureus [8], 8 mm; in the assay with Penicillium citrinum [9], 8 mm; with Aspergillus niger [11], 13 mm.

For the origin of these results see ChEMBL document CHEMBL3751674, “Synthesis, antimicrobial activity of Schiff base compounds of cinnamaldehyde and amino acids” (2016).
